Patent US10829648B2, “Succinate dehydrogenase inhibitor containing compositions” (priority 2012, dated 2020)
In brackets after ≈: the same amount, converted by molar mass. Like-named read-outs stand apart in the source and are kept apart here.

How the values were obtained:
Assay type in all cases: cell-based
[1] = tested on: Trichoderma virens (ATCC 9645); experiment: Microtiter plate MIC test, T. virens; details: for MIC: Trichoderma virens, ATCC9645, 168 h, read-out: MIC alone
Description: (§1) Sample stock solution of Penflufen was prepared in DMSO at 20000 ppm (active ingredient).
(§2) Microorganisms grown on agar slants were harvested using standard microbiological techniques. The numbers of mold spores were determined by counted using a hemocytometer, and then inoculum was prepared in the media shown in Table 2. Then, 190 ul of inoculum was added into each well containing 10 ul of the serially diluted sample solution.

[2] = tested on: Aspergillus brasiliensis (ATCC 16404); experiment: Microtiter plate minimum inhibitory concentration (MIC) test, A. brasiliensis; details: for MIC: Aspergillus brasiliensis, ATCC16404, 168 h, read-out: MIC alone
Description: as §1, §2

[3] = tested on: Aureobasidium pullulans (ATCC 9348); experiment: Microtiter plate MIC test, A. pullulans; details: for MIC: Aureobasidium pullulans, ATCC9348, 168 h, read-out: MIC alone
Description: as §1, §2

[4] = tested on: Aspergillus niger (ATCC 9642); experiment: Microtiter plate MIC test, A. niger; details: for MIC: Aspergillus niger, ATCC9642, 168 h, read-out: MIC alone
Description: as §1, §2

P. pinophilum = experiment: Microtiter plate MIC test, P. pinophilum; details: for MIC: 168 h, read-out: MIC alone
Description: as §1, §2

Coniophora puteana = experiment: Agar dilution MIC against decay fungus Coniophora puteana; details: for MIC: Coniophora puteana, 216 h, read-out: Coniophora puteana MIC (ppm)
Description: (§3) Total 17 samples, including Penflufen, 8 Penflufen-potentiator blends and 8 potentiators were submitted for evaluation.
(§4) Decay fungi Antrodia sinuosa and Coniophora puteana were obtained from GTS microbiology lab fungal collection and cultured on Potato Dextrose Agar at 28° C.
(§5) The samples were diluted to test at a starting concentration of 1,000 ppm active based on the concentration of Penflufen in the samples. Samples were serially diluted into the molten Potato Dextrose Agar before the agar was solidified. The agar plugs with active fungal hyphae growth were inoculated onto the prepared agar surface.
(§6) All concentrations reported are in ppm.

Antrodia sinuosa = experiment: Agar dilution MIC against decay fungus Antrodia sinuosa; details: for MIC: Adustoporia sinuosa, 216 h, read-out: Antrodia sinuosa MIC (ppm)
Description: as §3, §4, §5, §6

[5] = substance alone, T. virens, 28° C., 7 days, ppm
[6] = substance alone, A. brasiliensis, 28° C., 7 days, ppm
[7] = substance alone, A. pullulans, 28° C., 7 days, ppm
[8] = substance alone, A. niger, 28° C., 7 days, ppm
[9] = substance alone, P. pinophilum, 28° C., 7 days, ppm
[10] = active or potentiator alone, Potato Dextrose Agar, 28° C., 9 days, complete inhibition of hyphae growth

## Cc1ccc(S(N)(=O)=O)cc1
[1]; [5]
  MIC alone: 5000 ppm
[2]; [6]
  MIC alone: 5000 ppm
[3]; [7]
  MIC alone: 5000 ppm
[4]; [8]
  MIC alone: 5000 ppm
P. pinophilum; [9]
  MIC alone: 5000 ppm

## CCCCCCCCCCCCN(C)C [Barlene 12, N,N-Dimethyl-N-dodecylamine]
[1]
  MIC: 7.81 µg/mL (≈ 36.6 µM)
Coniophora puteana
  MIC: 500 µg/mL
Antrodia sinuosa
  MIC: 250 µg/mL
[2]
  MIC: 31.2 µg/mL (≈ 146 µM)
[3]
  MIC: 7.81 µg/mL (≈ 36.6 µM)
[4]
  MIC: 250 µg/mL (≈ 1170 µM)
P. pinophilum
  MIC: 7.81 µg/mL (≈ 36.6 µM)

## CC(=O)c1c([O-])cc(C)oc1=O.CC(=O)c1c([O-])cc(C)oc1=O.[Zn+2] [DHA Zn, Dehydroacetic acid zinc salt]
[1]; [5]
  MIC alone: 250 ppm
Coniophora puteana; [10]
  Coniophora puteana MIC (ppm): 125 ppm
Antrodia sinuosa; [10]
  Antrodia sinuosa MIC (ppm): 125 ppm
[2]; [6]
  MIC alone: 500 ppm
[3]; [7]
  MIC alone: 1000 ppm
[4]; [8]
  MIC alone: 500 ppm
P. pinophilum; [9]
  MIC alone: >1000 ppm

## CCCCCCCC/C=C\CCCCCCCCN [Oleylamine, (Z)-Octa-9-decenylamine]
[1]; [5]
  MIC alone: 0.625 ppm
Coniophora puteana; [10]
  Coniophora puteana MIC (ppm): 50.0 ppm
Antrodia sinuosa; [10]
  Antrodia sinuosa MIC (ppm): 50.0 ppm
[2]; [6]
  MIC alone: 2.5 ppm
[3]; [7]
  MIC alone: 0.31 ppm
[4]; [8]
  MIC alone: 1.25 ppm
P. pinophilum; [9]
  MIC alone: 1.25 ppm

## Cc1nn(C)c(F)c1C(=O)Nc1ccccc1C(C)CC(C)C (centres unmarked) [Penflufen, N-[2-(1,3-dimethylbutyl)phenyl]-5-fluoro-1,3-dimethyl-1H-pyrazole-4-carboxamide, reference compound]
[1]; [5]
  MIC: > 1000 µg/mL
Coniophora puteana; [10]
  MIC: 125 µg/mL
Antrodia sinuosa; [10]
  MIC: 62.5 µg/mL
[2]; [6]
  MIC: 15.7 µg/mL (≈ 49.3 µM)
[3]; [7]
  MIC: 500 µg/mL (≈ 1580 µM)
[4]; [8]
  MIC: 7.81 µg/mL (≈ 24.6 µM)
P. pinophilum; [9]
  MIC: > 1000 µg/mL

## O=C([O-])c1ccccc1.[Na+] [Sodium benzoate]
Coniophora puteana; [10]
  Coniophora puteana MIC (ppm): 313 ppm
Antrodia sinuosa; [10]
  Antrodia sinuosa MIC (ppm): 1250 ppm

## Isononoic Acid
[1]; [5]
  MIC alone: 625 ppm
Coniophora puteana; [10]
  Coniophora puteana MIC (ppm): 156 ppm
Antrodia sinuosa; [10]
  Antrodia sinuosa MIC (ppm): 313 ppm
[2]; [6]
  MIC alone: 1250 ppm
[3]; [7]
  MIC alone: 625 ppm
[4]; [8]
  MIC alone: 625 ppm
P. pinophilum; [9]
  MIC alone: 625 ppm

## Tris(2-hydroxyethyl)-N-tallowalkyl-1,3-diaminopropane [Ethoduomeen]
[1]; [5]
  MIC alone: <4.88 ppm
Coniophora puteana; [10]
  Coniophora puteana MIC (ppm): 2500 ppm
Antrodia sinuosa; [10]
  Antrodia sinuosa MIC (ppm): 625 ppm
[2]; [6]
  MIC alone: <4.88 ppm
[3]; [7]
  MIC alone: 9.76 ppm
[4]; [8]
  MIC alone: <4.88 ppm
P. pinophilum; [9]
  MIC alone: <4.88 ppm

## cocoamine oxide [Barlox 12]
[1]; [5]
  MIC alone: 125 ppm
Coniophora puteana; [10]
  Coniophora puteana MIC (ppm): 250 ppm
Antrodia sinuosa; [10]
  Antrodia sinuosa MIC (ppm): 62.5 ppm
[2]; [6]
  MIC alone: 62.5 ppm
[3]; [7]
  MIC alone: 15.62 ppm
[4]; [8]
  MIC alone: 15.62 ppm
P. pinophilum; [9]
  MIC alone: 62.5 ppm
